The values below come from US20230184743A1, “SCREENING METHODS TO IDENTIFY SMALL MOLECULE COMPOUNDS THAT PROMOTE OR INHIBIT THE GROWTH OF CIRCULATING TUMOR CELLS, AND USES THEREOF” (University of Southern California, priority 2020, published 2023).

Experiment [1] has as its system single BRx68 cells. Put plainly: Single CTC proliferation over 24 days (AUC), BRx68 line. The experiment is classed as cell-based, human. The conditions noted are these: two batches, 200 μM-300 μM NAC, 24 days. The protocol: Cell culture. CTC lines were previously derived from metastatic breast cancer patients. CTC lines were cultured in ultra-low attachment plates with RPMI 1640 medium, supplemented with EGF (20 ng/mL), bFGF (20 ng/mL), 1×B27 and 1× antibiotic/antimycotic, in 4% 02 and 5% CO2. Single CTCs were cultured in GravityTRAP™ ULA 96 well Plates (PerkinElmer). Wells on the edges of the plates were not used to avoid influence from evaporation. Media with fresh compounds were exchanged every 3 days by inserting pipet tips onto the platform of the wells to prevent accidentally aspirating suspended CTCs at the bottom. CTC numbers were counted manually under an inverted microscope every 6 days.
FACS sorting. […]
Statistical analysis. […] AUC was calculated for each well in each batch, by plotting days in the x-axis and the corresponding number of cells in the y-axis, then drawing a line to connect the number of cells from the starting count day to the next count day until the end day, and finally calculating the area under this line as the sum of areas of trapezoids. […] Statistical tests were performed using R. For absolute number of cells quantification, total number of cells at end of experiment in each well in each batch was compared between treated cells and untreated control and significance was analyzed with Student t test. […]

In experiment [2] the test system is BRx68-GFP+ cells. Put plainly: RNA-seq analysis of pools of growing single cell clones. The experiment is classed as cell-based, human. The conditions noted are these: day 6; NAC 0.3 mM, P4D8 1 μM. The protocol: RNA-seq analysis. BRx68-GFP+ cells were sorted, with 1 cell per well, using the MoFlo cell sorter (Beckman Coulter). Single cells were cultured in the presence of CTC media containing either 1 μM of P1C2, P4D8, or P1G7, or 0.3 mM of NAC or a combination of 1 μM of P1C2 and 0.3 mM of NAC. Cells cultured in media containing DMSO served as a control. All cells were cultured for either 6 days or 13 days at 37° C., 5% CO2 and 4% O2, and media was changed every 3 days. For both day 6 and day 13 groups, only clones with more than 3 cells at day 6 were harvested and pooled to a maximum of 50 cells. […] Libraries were sequenced on an Illumina NextSeq500 to obtain 75 bp-long single-end reads.
RNA-sequencing reads were trimmed for Nextera and Illumina adapter sequences using Trim Galore under default parameters. Trimmed reads were then mapped to the human genome build GRCh37 from Ensembl (ftp:/][/ftp.ensembl.org/pub/grch37/current/fasta/homo_sapiens/dna/Homo_sapiens.GRCh37.dna_sm.primary_as sembly.fa.gz) using STAR under optimized parameters for single-end sequenced data. Aligned reads were then counted via feature-Counts and piped into DESeq2 for normalization to sequencing depth and downstream analysis. […]

On to `CC(=O)N[C@@H](CS)C(=O)O` [NAC, N-acetyl-L-cysteine], for which the “single CTC proliferation at various NAC concentrations” value in experiment [1] is “most significant effect in promoting single CTC proliferation”. For the same molecule, the “lipid metabolism pathway enrichment (IPA of differentially expressed genes) compared with control” value in experiment [2] is “enriched”.
